Experimental data: US20080260714A1, “Fibrin Compositions Containing Strontium Compounds” (BAXTER INTERNATIONAL INC., priority 2007, published 2008)

Assays:
[1] = test system: SaOS-2 cell
Experimental: For the initial experiments, cells were seeded on the surface of clots.

[2] = test system: osteosarcoma cell line UMR-106; conditions: for PTH bioactivity: 24 h pre-incubation of UMR-106 cells with 20 mM salt prior to TGplPTH treatment, five experiments; for synergistic effect with PTH in generation of cAMP: UMR-106 osteoblast cells, 20 mM salt
Experimental: The present example describes in vitro studies on rat osteosarcoma cells to investigate if a combination of parathyroid hormone (PTH) and Strontium (used as SrCl2) on activation of bone formation factors like increased cAMP production in osteoblasts.
The osteosarcoma cell line UMR-106 (NewLab Bioquality AG, Erkrath, Germany) was used to perform the bioassay.
UMR-106 cells were seeded in growth medium at a density of 30000 cells/cm^2 and incubated at 37° C./8.0% CO2 After 24 hours, medium was exchanged with either fresh medium, medium containing 20 mM SrCl2 or medium containing 20 mM CaCl2. Cells were further incubated at 37° C./8.0% CO2 for 24 hours. Cells were harvested according to the following procedure:
Cells were washed twice with HBSS and detached from the surface using 6 ml trypsine/EDTA for 3 min at room temperature. Trypsin digestion was stopped with 12 ml growth medium. Following centrifugation (3 min, 1000 rpm, RT) cells were resuspended in 12 ml starvation medium and counted with a CASY cell counter. The rate of dead cells was below 10% in every experiment. Cells were resuspended to a final concentration of 1.6×10^6 cells/ml in starvation medium. 50 μl of cell suspension was transferred into each well of a 96-well plate and incubated for 30 min at 37° C., 8.0% CO2.
Samples were diluted in freshly prepared starvation medium containing 2 mM IBMX (SI medium). For preparation of SI-medium 30 μl of a 0.67M IBMX stock in DMSO was added to 10 ml of starvation medium.
All sample dilutions were prepared with this medium to inhibit phosphodiesterase activity in UMR-106 cells (Janik, P., 1980; Chasin M. and Harris, D. N., 1976). 50 μl of diluted samples (as indicated in results) were added to the cells after 30 min incubation at 37° C. For cAMP production cells were incubated for 1 h at 37° C., 8.0% CO2. Each sample concentration was added to cells at least in duplicates following cAMP analysis in duplicates.
Cell lysis and dilution of cAMP For extraction of cAMP 100 μl of cell suspension containing PTH was incubated with 25 μl (final dilution 1:5) lysis reagent solvent 1A that is part of the cAMP Biotrak EIA kit (GE Healthcare). For total lysis, cells were shaken for 15 min at 500 rpm at room temperature. […]
Data analysis. The optical density was determined in a plate reader (Synergy HT) by measuring the absorbance of the samples at 450 nm using the software KC4. […]
cAMP concentration of the samples. Taking into account the dilution factor (20×) the produced cAMP amounts were calculated using the parameters (slope and intercept) of the standard curve.
Preparation of Samples for Bioassay Analysis. […] For all samples and all dilutions, mean values of OD450, standard deviations, cAMP concentrations and coefficients of variations were calculated.

[3] = test system: human osteoblast-like cells (SaOS-2); assay: Alamar Blue proliferation of cells grown on fibrin clots; type: cell-based; conditions: SaOS-2 on clots up to 7 days; Sr salt in thrombin dilution buffer; compared to normal clot with 20 mM CaCl2
Experimental: (§1) For in-vitro experiments, the clots were prepared by pipetting 150 μl of the fibrinogen solution to the wells of a 24 well plate. The plate was put on plate shaker to ensure an even distribution over the well bottom. 150 μl of the thrombin solution was then added to the well and the plate was put on a plate shaker to ensure homogeneous clots. A human osteoblast-like cell line (SaoS-2) was cultured on the clots for up to 7 days to see if any differences in cell proliferation/cell differentiation could be observed.

[4] = test system: human osteoblast-like cells (SaOS-2); assay: alkaline phosphatase production of cells grown on fibrin clots; type: cell-based; conditions: SaOS-2 on clots containing strontium; production over 30 minutes; preliminary result
Experimental: as §1
These experiments are being repeated with a 14 day investigative period.

[5] = turbidimetric analysis of clots; type: physicochemical; conditions: strontium containing clots in comparison to calcium containing clots
Experimental: In addition to the cell studies observation, turbidmetric analysis was carried out to examine if the clot structure was altered as a result of the strontium (FIG. 4) The clot turbidity is directly proportional to average cross-sectional area of the fibres, therefore the more turbid the clot the greater the fiber diameter.

| SMILES | time at which cell death occurs ([1]; SaOS-2, 12.5 mM CaCl2 in medium) [h] | cell survival / proliferation (MTS assay) ([1]; SaOS-2 on tissue culture plastic, medium with 12.5 mM Sr or Ca) | PTH bioactivity [2] | synergistic effect with PTH in generation of cAMP [2] | proliferation (Alamar Blue) [3] | alkaline phosphatase expression [4] | clot turbidity (kinetics and absorbance) [5] |
| --- | --- | --- | --- | --- | --- | --- | --- |
| [Ca+2].[Cl-].[Cl-] [CaCl2, calcium chloride, reference compound] | ≤ 24 | Cell death | no change in PTH bioactivity | No such effect |  |  |  |
| [Cl-].[Cl-].[Sr+2] [SrCl2, Strontium Chloride] |  |  | twofold increased bioactivity | positive synergistic effect | significant increased proliferation | increase in alkaline phosphatase expression | very little difference in the kinetics and absorbance |
| CC(=O)[O-].CC(=O)[O-].[Sr+2] [Strontium Acetate] |  |  |  |  |  | appear not to be significant |  |
